From US20110052684A1, “PHARMACEUTICAL COMPOSITION” (priority 2008, published 2011)
Counter-ions that a name gives are not always drawn.

Tests used:
Type in all cases: physicochemical
[1] = pKa (physicochemistry of the actives)
Text: The synchronous release of the combination of actives comprising the once-daily pharmaceutical compositions of the present invention is particularly surprising when one considers that the differing physicochemical characteristics of the active ingredients and the likely differences in the permeability coefficients for the combination of active drugs would result in a differing rate and extent of drug release for each of the drugs chosen to be part of the combination. Accordingly, it was expected that it would be difficult to optimize the release kinetics of the combination of drugs contemplated without one drug potentially negatively influencing the release kinetics of the other drug of the combination.

[2] = Dissolution, 900 ml 0.1N HCl, USP Apparatus 1, 75 rpm, 37° C.; details: Example 29 homogenous CR tablet (batch no. 08070T)
Description: (§1) The dissolution profile of the above pharmaceutical composition was determined under the dissolution conditions described below in Tables 1A, 1B, and 1C.

[3] = Dissolution, 900 ml pH 6.8 phosphate buffer, USP Apparatus 1, 75 rpm, 37° C.; details: Example 29 homogenous CR tablet (batch no. 08070T)
Description: as §1

[4] = Dissolution, 900 ml pH 7.5 phosphate buffer, Apparatus 1, 75 rpm, 37 C.
Description: FIG. 27 is a graph depicting the dissolution profile in 900 ml of pH 7.5 phosphate buffer using USP Apparatus 1 at 75 rpm at 37° C. of the composition described in Example 27.
FIG. 28 is a graph depicting the dissolution profile in 900 ml of pH 7.5 phosphate buffer using USP Apparatus 1 at 75 rpm at 37° C. of the composition described in Example 28.
The dissolution profile of the above pharmaceutical composition was determined under the dissolution conditions described below in Table 27.
The dissolution profile of the above pharmaceutical composition was determined under the dissolution conditions described below in Table 28. The result of the dissolution testing is presented as a % of the total tramadol HCl and meloxicam in the controlled release tablet (batch 1258-175) and also depicted in FIG. 28.

CC(NC(C)(C)C)C(=O)c1cccc(Cl)c1 (stereo not shown) [Bupropion HBr, bupropion hydrobromide]
pKa [1]: 7.8

OCCOCCN1CCN(C2=Nc3ccccc3Sc3ccccc32)CC1 [Quetiapine Fumarate, quetiapine fumarate]
pKa [1]: 3.3

COc1cccc(C2(O)CCCCC2CN(C)C)c1 (stereo not shown) [Tramadol HCl]
% Released ([2]; 0.5 hr): 18%
% Released ([2]; 1 hr): 28%
% Released ([2]; 2 hr): 42%
% Released ([2]; 3 hr): 53%
% Released ([2]; 4 hr): 62%
% Released ([2]; 5 hr): 70%
% Released ([2]; 6 hr): 76%
% Released ([2]; 8 hr): 86%
% Released ([2]; 10 hr): 93%
% Released ([2]; 12 hr): 97%
% Released ([3]; 0.5 hr): 19%
% Released ([3]; 1 hr): 29%
% Released ([3]; 2 hr): 44%
% Released ([3]; 3 hr): 55%
% Released ([3]; 4 hr): 65%
% Released ([3]; 5 hr): 72%
% Released ([3]; 6 hr): 79%
% Released ([3]; 8 hr): 90%
% Released ([3]; 10 hr): 98%
% Release ([4]; 2 hrs, Example 27 controlled release tablet (batch 1258-171), ethylcellulose coating): 51%
% Release ([4]; 2 hrs, Example 28 controlled release tablet (batch 1258-175), Kollicoat SR 30D coating): 0%
% Release ([4]; 4 hrs, Example 27 controlled release tablet (batch 1258-171), ethylcellulose coating): 70%
% Release ([4]; 4 hrs, Example 28 controlled release tablet (batch 1258-175), Kollicoat SR 30D coating): 7%
% Release ([4]; 8 hrs, Example 27 controlled release tablet (batch 1258-171), ethylcellulose coating): 96%
% Release ([4]; 8 hrs, Example 28 controlled release tablet (batch 1258-175), Kollicoat SR 30D coating): 61%
% Release ([4]; 10 hrs, Example 27 controlled release tablet (batch 1258-171), ethylcellulose coating): 100%
% Release ([4]; 10 hrs, Example 28 controlled release tablet (batch 1258-175), Kollicoat SR 30D coating): 74%
% Release ([4]; 16 hrs, Example 27 controlled release tablet (batch 1258-171), ethylcellulose coating): 100%
% Release ([4]; 16 hrs, Example 28 controlled release tablet (batch 1258-175), Kollicoat SR 30D coating): 84%
